What was measured:
[1] = Shape and frizz control (volume) of straightened hair switches after high humidity, image analysis; settings: After 1 hour at high humidity (30 C./80% RH), switches soaked 30 minutes in 1% aqueous solution, dried, compared to water control
Protocol: (§1) Dark brown European wavy hair switches of length 25 cm and weight 2 gms, were treated as follows:
Control: After initial washing, soaked for 30 minutes in water
Comparative Example A: After initial washing, soaked for 30 minutes in aqueous solution of 1% glycine
Example 1: soaked for 30 minutes in aqueous solution of 1% N-formyl glycine
(§2) At the end of the soaking period, the switches were left to dry at 20° C. and 50% RH. When dried, the switches were straightened with 5 passes of FHI irons (FHI Brands, 29003 Avenue Sherman Valencia, Calif. 91355 USA). The switches were then placed in a humidity chamber ˜30 C/80% RH for 1 hour and images were captured and analyzed.

[2] = Long lasting and durable volume reduction of treated hair switches after subsequent washing; settings: switches from Example 1 subsequently washed, images captured; compared to control
Protocol: as §1, §2
The switches from the above example were subsequently washed and the images were captured. […] The corresponding benefits for glycine was only −10%.

NCC(=O)O [Comparative Example A, glycine]
% shape and frizz control benefit against control [1]: −6%
benefit over control (volume reduction) [2]: −10%

O=CNCC(=O)O [Example 1, N-formyl glycine]
% shape and frizz control benefit against control [1]: 30%
benefit over control (volume reduction) [2]: 32%

Source: patent US11229592B2, “Method for hair volume reduction” (Conopco, Inc., priority 2017, dated 2022)
